Data as given in PubChem BioAssay AID1963845 (Molecular Pharmacology Branch, DTP, NCI, 2024).

Test system: 429239-143-T-J1-PDC complex spheroid viability
Experiment: Anticancer human tumor 429239-143-T-J1-PDC patient-derived small cell lung carcinoma cell line growth inhibition [POLQ]
Conditions: for IC50: curve of first compound; for viability, T/C: stronger effect = lower value; active means viability on the fitted dose curve at most 10% of control; inactive means the rest
Outline: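 Complex spheroid viability model combining PDC tumour cells with endothelial (HUVEC) and MSC stromal cells. Novobiocin, ART-558 or RP6685 were tested singly and in combination with standard and investigational anticancer drugs. Each was titrated in half-log steps from near clinical Cmax, or from 10 microM where Cmax was unknown.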

[1] = second compound 0.0316 µM, first compound 0.0316 µM
[2] = second compound 0.0316 µM, first compound 0.1 µM
[3] = second compound 0.0316 µM, first compound 0.316 µM
[4] = second compound 0.0316 µM, first compound 1 µM
[5] = second compound 0.1 µM, first compound 0.0316 µM
[6] = second compound 0.1 µM, first compound 0.1 µM
[7] = second compound 0.1 µM, first compound 0.316 µM
[8] = second compound 0.1 µM, first compound 1 µM
[9] = second compound 0.316 µM, first compound 0.0316 µM
[10] = second compound 0.316 µM, first compound 0.1 µM
[11] = second compound 0.316 µM, first compound 0.316 µM
[12] = second compound 0.316 µM, first compound 1 µM
[13] = second compound 1 µM, first compound 0.0316 µM
[14] = second compound 1 µM, first compound 0.1 µM
[15] = second compound 1 µM, first compound 0.316 µM
[16] = second compound 1 µM, first compound 1 µM
[17] = second compound 3.16 µM, first compound 0.0316 µM
[18] = second compound 3.16 µM, first compound 0.1 µM
[19] = second compound 3.16 µM, first compound 0.316 µM
[20] = second compound 3.16 µM, first compound 1 µM
[21] = second compound 10 µM, first compound 0.0316 µM
[22] = second compound 10 µM, first compound 0.1 µM
[23] = second compound 10 µM, first compound 0.316 µM
[24] = second compound 10 µM, first compound 1 µM
[25] = second compound 0.0316 µM, first compound 3.16 µM
[26] = second compound 0.0316 µM, first compound 10 µM
[27] = second compound 0.1 µM, first compound 3.16 µM
[28] = second compound 0.1 µM, first compound 10 µM
[29] = second compound 0.316 µM, first compound 3.16 µM
[30] = second compound 0.316 µM, first compound 10 µM
[31] = second compound 1 µM, first compound 3.16 µM
[32] = second compound 1 µM, first compound 10 µM
[33] = second compound 3.16 µM, first compound 3.16 µM
[34] = second compound 3.16 µM, first compound 10 µM
[35] = second compound 10 µM, first compound 3.16 µM
[36] = second compound 10 µM, first compound 10 µM
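Further: luminescence signal used as surrogate measure of viable cells; spheroids exposed to compounds for seven days before readout.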
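Wherever viability, T/C is given: 100% = DMSO vehicle control viability as luminescence relative to vehicle.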

CCc1c2c(nc3ccc(O)cc13)-c1cc3c(c(=O)n1C2)COC(=O)[C@]3(O)CC + Nc1ccc(C#CCN(C(=O)Cc2ncc(C(F)(F)F)cc2C(F)(F)F)c2ccc(F)cc2)nn1
< 0.00316 µM: IC50 (second compound 0.0316 µM) | IC50 (second compound 0.1 µM) | IC50 (second compound 0.316 µM) | IC50 (second compound 1 µM) | IC50 (second compound 3.16 µM) | IC50 (second compound 10 µM)
inactive: viability, T/C (second compound 0.0316 µM, first compound 0.00316 µM) 12% | viability, T/C (second compound 0.1 µM, first compound 0.00316 µM) 10.2%
active: viability, T/C (second compound 0.0316 µM, first compound 0.01 µM) 8.29% | viability, T/C [1] 7.72% | viability, T/C [2] 6.64% | viability, T/C [3] 4.44% | viability, T/C [4] 1.99% | viability, T/C (second compound 0.1 µM, first compound 0.01 µM) 7.32% | viability, T/C [5] 7.97% | viability, T/C [6] 6.96% | viability, T/C [7] 4.07% | viability, T/C [8] 3.28% | viability, T/C (second compound 0.316 µM, first compound 0.00316 µM) 8.87% | viability, T/C (second compound 0.316 µM, first compound 0.01 µM) 7.47% | viability, T/C [9] 6.42% | viability, T/C [10] 7.02% | viability, T/C [11] 6% | viability, T/C [12] 3.04% | viability, T/C (second compound 1 µM, first compound 0.00316 µM) 8.25% | viability, T/C (second compound 1 µM, first compound 0.01 µM) 8.49% | viability, T/C [13] 7.35% | viability, T/C [14] 7.22% | viability, T/C [15] 4.56% | viability, T/C [16] 1.52% | viability, T/C (second compound 3.16 µM, first compound 0.00316 µM) 8.61% | viability, T/C (second compound 3.16 µM, first compound 0.01 µM) 7.3% | viability, T/C [17] 8.79% | viability, T/C [18] 8.33% | viability, T/C [19] 4.53% | viability, T/C [20] 2.41% | viability, T/C (second compound 10 µM, first compound 0.00316 µM) 6.48% | viability, T/C (second compound 10 µM, first compound 0.01 µM) 7.39% | viability, T/C [21] 8.55% | viability, T/C [22] 6.94% | viability, T/C [23] 4.47% | viability, T/C [24] 1.68%

CNCc1ccc(-c2[nH]c3cc(F)cc4c3c2CCNC4=O)cc1 + Nc1ccc(C#CCN(C(=O)Cc2ncc(C(F)(F)F)cc2C(F)(F)F)c2ccc(F)cc2)nn1
6.09 µM: IC50 (second compound 3.16 µM)
6.07 µM: IC50 (second compound 0.1 µM)
6.32 µM: IC50 (second compound 0.316 µM)
inactive: viability, T/C [1] 98.7% | viability, T/C [2] 99.6% | viability, T/C [3] 97.7% | viability, T/C [4] 94.6% | viability, T/C [25] 82.4% | viability, T/C [26] 30.9% | viability, T/C [5] 92.7% | viability, T/C [6] 88.4% | viability, T/C [7] 90.6% | viability, T/C [8] 86.8% | viability, T/C [27] 80.6% | viability, T/C [28] 26.5% | viability, T/C [9] 97.2% | viability, T/C [10] 94.7% | viability, T/C [11] 98.5% | viability, T/C [12] 93.5% | viability, T/C [29] 79.4% | viability, T/C [30] 30.6% | viability, T/C [13] 106% | viability, T/C [14] 96.1% | viability, T/C [15] 86.3% | viability, T/C [16] 84.8% | viability, T/C [31] 79.3% | viability, T/C [32] 24% | viability, T/C [17] 104% | viability, T/C [18] 92.2% | viability, T/C [19] 94.7% | viability, T/C [20] 90.7% | viability, T/C [33] 75.1% | viability, T/C [34] 31.4% | viability, T/C [21] 101% | viability, T/C [22] 80.5% | viability, T/C [23] 87.6% | viability, T/C [24] 83% | viability, T/C [35] 81.8% | viability, T/C [36] 24.1%
6.53 µM: IC50 (second compound 0.0316 µM)
5.96 µM: IC50 (second compound 10 µM)
5.54 µM: IC50 (second compound 1 µM)

Nc1ccn(C2OC(CO)C(O)C2(F)F)c(=O)n1 (stereo not drawn) + Nc1ccc(C#CCN(C(=O)Cc2ncc(C(F)(F)F)cc2C(F)(F)F)c2ccc(F)cc2)nn1
inactive: viability, T/C [1] 77.1% | viability, T/C [5] 77.7% | viability, T/C [9] 75% | viability, T/C [13] 70.9% | viability, T/C [17] 73.6% | viability, T/C [21] 78%
0.0476 µM: IC50 (second compound 3.16 µM)
0.0499 µM: IC50 (second compound 0.1 µM)
0.0483 µM: IC50 (second compound 0.316 µM)
0.0462 µM: IC50 (second compound 1 µM)
0.0506 µM: IC50 (second compound 10 µM)
active: viability, T/C [2] 7.33% | viability, T/C [3] 5.99% | viability, T/C [4] 6.45% | viability, T/C [25] 6.94% | viability, T/C [26] 6.48% | viability, T/C [6] 7.8% | viability, T/C [7] 7.04% | viability, T/C [8] 5.04% | viability, T/C [27] 8.53% | viability, T/C [28] 6.25% | viability, T/C [10] 7.13% | viability, T/C [11] 7.6% | viability, T/C [12] 6.15% | viability, T/C [29] 6.48% | viability, T/C [30] 7.03% | viability, T/C [14] 7.27% | viability, T/C [15] 7.19% | viability, T/C [16] 7.47% | viability, T/C [31] 6.86% | viability, T/C [32] 6.1% | viability, T/C [18] 7.11% | viability, T/C [19] 6.48% | viability, T/C [20] 5.97% | viability, T/C [33] 6.64% | viability, T/C [34] 8.77% | viability, T/C [22] 9.42% | viability, T/C [23] 7.4% | viability, T/C [24] 7.48% | viability, T/C [35] 6.25% | viability, T/C [36] 7%
0.0494 µM: IC50 (second compound 0.0316 µM)

O=C(c1cc(Cc2n[nH]c(=O)c3ccccc23)ccc1F)N1CCN(C(=O)C2CC2)CC1 + Nc1ccc(C#CCN(C(=O)Cc2ncc(C(F)(F)F)cc2C(F)(F)F)c2ccc(F)cc2)nn1
inactive: viability, T/C [1] 101% | viability, T/C [2] 98.4% | viability, T/C [3] 92.4% | viability, T/C [4] 84.9% | viability, T/C [25] 64.8% | viability, T/C [5] 96.6% | viability, T/C [6] 104% | viability, T/C [7] 90% | viability, T/C [8] 95.9% | viability, T/C [27] 60.8% | viability, T/C [9] 104% | viability, T/C [10] 99.1% | viability, T/C [11] 91.3% | viability, T/C [12] 81.2% | viability, T/C [29] 65.8% | viability, T/C [13] 105% | viability, T/C [14] 94.4% | viability, T/C [15] 88.5% | viability, T/C [16] 84.9% | viability, T/C [31] 64.8% | viability, T/C [17] 97.6% | viability, T/C [18] 93.4% | viability, T/C [19] 90.8% | viability, T/C [20] 95.2% | viability, T/C [33] 64.3% | viability, T/C [21] 102% | viability, T/C [22] 92% | viability, T/C [23] 93.5% | viability, T/C [24] 88.9% | viability, T/C [35] 55.4%
4.09 µM: IC50 (second compound 0.316 µM)
3.96 µM: IC50 (second compound 0.1 µM)
3.6 µM: IC50 (second compound 10 µM)
4.25 µM: IC50 (second compound 3.16 µM)
4.18 µM: IC50 (second compound 0.0316 µM)
active: viability, T/C [26] 7.77% | viability, T/C [28] 6.66% | viability, T/C [30] 9.12% | viability, T/C [32] 8.72% | viability, T/C [34] 8.47% | viability, T/C [36] 6.04%
4.13 µM: IC50 (second compound 1 µM)
